{"source": "patent US5352804A", "about": "“Isolation and structure of Halistatin 2” (Arizona Board of Regents, a body corporate, acting on …, priority 1993, dated 1994)", "key": {"[1]": {"tested_on": "tubulin", "experiment": "glutamate-induced polymerization of purified tubulin", "type": "biochemical", "procedure": "Halistatin 2 was evaluated to determine if it was an antimitotic agent which interfered with the polymerization of purified tubulin and microtubule assembly dependent on microtubule-associated proteins isolated.\n(§1) For radiolabeled GTP binding to tubulin, the same drug concentrations inhibited the reaction by 17% and 51% with halistatin 2."}, "[2]": {"tested_on": "NCI-H322M", "experiment": "cells", "type": "cell-based", "settings": "Homo sapiens"}, "[3]": {"tested_on": "L1210 murine leukemia cells", "experiment": "mitotic index (accumulation of cells arrested in mitosis)", "type": "cell-based", "settings": "at cytotoxic concentrations"}, "[4]": {"tested_on": "L1210 murine leukemia cells", "experiment": "cytotoxicity in L1210 murine leukemia cells", "type": "cell-based"}, "[5]": {"tested_on": "UACC-62", "experiment": "NCI human tumor in vitro primary screen", "type": "cell-based", "settings": "melanoma", "description": "(§2) Only two hundred years ago, many diseases ravaged humankind. Many of these diseases now have been controlled or eradicated. In the development of the means to treat or control these diseases, work with the appropriate common experimental animals was of critical importance. With the various types of cancers, and with the HIV virus, such work is presently ongoing. The research for the treatment of various types of cancer is coordinated in the United States by the National Cancer Institute (NCI). NCI, as a government entity, has been charged with assisting anti-cancer research. To establish whether a substance has anti cancer activity, NCI has established a variety of protocols, one of which involves testing the candidate substance against a cell line panel containing 60 human tumor cell lines. This protocol has been verified and is generally accepted throughout the scientific community. This protocol and the established statistical means of evaluating the results obtained therefrom have been fully described in the literature. See Principles & Practice of Oncology PPO Updates, Volume 3, Number 10, Oct. 1989, by Michael R. Boyd, M.D., Ph.D., for an indepth description of the test protocol. The statistical analysis is explained in \"Display and Analysis of Patterns of Differential Activity of Drugs Against Human Tumor Cell Lines: Development of Means Graph and COMPARE Algorithm\" Journal of the National Cancer Institute Reports Vol. 81, No. 14, Pg. 1088, Jul. 14, 1989, by K. D. Paull et al. Both of these references are incorporated herein by this reference thereto.\n(§3) Biological Testing; Data Display and Analysis; Screening Data Summary. Freshly isolated halistatin 2 was tested in the NCI's human tumor, disease-oriented in vitro primary screen, and data calculations performed. Table 3 is a composite prepared from mean graphs constructed from the averaged GI50 values from quadruplicate screenings of Halistatin 2."}, "[6]": {"tested_on": "HT29", "experiment": "NCI human tumor in vitro primary screen", "type": "cell-based", "settings": "HT-29, colon cancer", "description": "as §2, §3"}, "[7]": {"tested_on": "SNB-19", "experiment": "NCI human tumor in vitro primary screen", "type": "cell-based", "settings": "CNS cancer", "description": "as §2, §3"}, "[8]": {"tested_on": "SK-MEL-2", "experiment": "NCI human tumor in vitro primary screen", "type": "cell-based", "settings": "melanoma", "description": "as §2, §3"}, "[9]": {"tested_on": "SF-539", "experiment": "NCI human tumor in vitro primary screen", "type": "cell-based", "settings": "CNS cancer", "description": "as §2, §3"}, "[10]": {"tested_on": "NCI-H522", "experiment": "NCI human tumor in vitro primary screen", "type": "cell-based", "description": "as §2, §3"}, "[11]": {"tested_on": "M19-MEL", "experiment": "NCI human tumor in vitro primary screen", "type": "cell-based", "settings": "melanoma", "description": "as §2, §3"}, "[12]": {"tested_on": "OVCAR-5", "experiment": "NCI human tumor in vitro primary screen", "type": "cell-based", "settings": "ovarian cancer", "description": "as §2, §3"}, "[13]": {"tested_on": "SF-268", "experiment": "NCI human tumor in vitro primary screen", "type": "cell-based", "settings": "CNS cancer", "description": "as §2, §3"}, "[14]": {"tested_on": "tubulin", "experiment": "binding of radiolabeled vinblastine to tubulin"}, "[15]": {"tested_on": "P388 lymphocytic leukemia", "experiment": "P388 lymphocytic leukemia in vivo (NCI protocol)", "settings": "40 μg/kg host body weight, BDF mice", "procedure": "When BDF, mice were treated with 40 μg/kg host body weight of halistatin 2."}, "[16]": {"tested_on": "tubulin", "experiment": "radiolabeled GTP binding to tubulin / nucleotide exchange on tubulin", "description": "as §1"}, "[17]": {"settings": "read-out: Log10 GI50 (converted)"}, "[18]": {"settings": "read-out: averaged negative log10 GI50 (converted)"}, "[19]": {"settings": "read-out: Log10 TGI (converted)"}}, "note": "“Also recorded” adds a separate entry of the source. Where two headings read alike, the source gives them in different places.", "data": [{"smiles": "C=C1CC2CCC34CC5OC6C(O3)C3OC(CCC3OC6(O)C5O4)CC(=O)OC3C(CC4OC(CCC1O2)CC(C)C4=C)OC1CC2OC4(CC2OC1C3C)CC1OC2(CC(C)C3OC5CC(C(O)CO)OC5CC3O2)CC(C)C1O4", "note": "(centres unmarked) [halistatin 2]", "values": [{"measurement": "inhibition of tubulin polymerization (in words)", "setting": "[1]", "result": "inhibited tubulin polymerization"}, {"measurement": "IC50", "setting": "[1]; purified tubulin", "result": "4900 ± 500", "unit": "nM"}, {"measurement": "GI50", "setting": "[2]; [17]", "result": 3.02, "unit": "nM"}, {"measurement": "IC (TGI)", "setting": "[2]; read-out: Log10 TGI", "result": 10, "unit": "nM"}, {"measurement": "GI50", "setting": "[2]; [18]", "result": 3.02, "unit": "nM"}, {"measurement": "mitotic arrest / rise in mitotic index (in words)", "setting": "[3]", "result": "caused a significant rise in the mitotic index; also recorded: caused the accumulation of cells arrested in mitosis"}, {"measurement": "mitotic index", "setting": "[3]", "result": "≤ 20", "unit": "%"}, {"measurement": "cytotoxicity (in words)", "setting": "[4]", "result": "significant cytotoxicity"}, {"measurement": "IC50", "setting": "[4]; Mus musculus", "result": 0.4, "unit": "nM"}, {"measurement": "GI50", "setting": "[5]; [17]", "result": 0.339, "unit": "nM"}, {"measurement": "IC (TGI)", "setting": "[5]; [19]", "result": 10, "unit": "nM"}, {"measurement": "GI50", "setting": "[5]; [18]", "result": 0.339, "unit": "nM"}, {"measurement": "GI50", "setting": "[6]; [17]", "result": 0.457, "unit": "nM"}, {"measurement": "IC (TGI)", "setting": "[6]; [19]", "result": 3.72, "unit": "nM"}, {"measurement": "GI50", "setting": "[6]; [18]", "result": 0.457, "unit": "nM"}, {"measurement": "GI50", "setting": "[7]; [17]", "result": 2.09, "unit": "nM"}, {"measurement": "IC (TGI)", "setting": "[7]; [19]", "result": 10, "unit": "nM"}, {"measurement": "GI50", "setting": "[7]; [18]", "result": 2.09, "unit": "nM"}, {"measurement": "GI50", "setting": "[8]; [17]", "result": 0.309, "unit": "nM"}, {"measurement": "IC (TGI)", "setting": "[8]; [19]", "result": 4.57, "unit": "nM"}, {"measurement": "GI50", "setting": "[8]; [18]", "result": 0.309, "unit": "nM"}, {"measurement": "GI50", "setting": "[9]; [17]", "result": 0.324, "unit": "nM"}, {"measurement": "IC (TGI)", "setting": "[9]; [19]", "result": 1.51, "unit": "nM"}, {"measurement": "GI50", "setting": "[9]; [18]", "result": 0.324, "unit": "nM"}, {"measurement": "GI50", "setting": "[10]; NCl-H522, non-small cell lung cancer, read-out: Log10 GI50 (converted)", "result": 0.2, "unit": "nM"}, {"measurement": "IC (TGI)", "setting": "[10]; NCl-H522, non-small cell lung cancer, read-out: Log10 TGI (converted)", "result": 0.55, "unit": "nM"}, {"measurement": "GI50", "setting": "[10]; non-small cell lung cancer, read-out: averaged negative log10 GI50 (converted)", "result": 0.2, "unit": "nM"}, {"measurement": "GI50", "setting": "[11]; [17]", "result": 0.331, "unit": "nM"}, {"measurement": "IC (TGI)", "setting": "[11]; [19]", "result": 5.01, "unit": "nM"}, {"measurement": "GI50", "setting": "[12]; [17]", "result": 1.82, "unit": "nM"}, {"measurement": "IC (TGI)", "setting": "[12]; [19]", "result": 10, "unit": "nM"}, {"measurement": "GI50", "setting": "[12]; [18]", "result": 1.82, "unit": "nM"}, {"measurement": "GI50", "setting": "[13]; [17]", "result": 1.82, "unit": "nM"}, {"measurement": "IC (TGI)", "setting": "[13]; [19]", "result": 10, "unit": "nM"}, {"measurement": "GI50", "setting": "[13]; [18]", "result": 1.82, "unit": "nM"}, {"measurement": "inhibition of radiolabeled vinblastine binding to tubulin (in words)", "setting": "[14]", "result": "inhibited the binding of radiolabeled vinblastine and GTP to tubulin"}, {"measurement": "type of inhibition of vinblastine binding (in words)", "setting": "[14]", "result": "noncompetitive inhibitor"}, {"measurement": "inhibition of radiolabeled vinblastine binding to tubulin", "setting": "[14]; 5 μM", "result": 51, "unit": "%"}, {"measurement": "inhibition of radiolabeled vinblastine binding to tubulin", "setting": "[14]; 10 μM", "result": 75, "unit": "%"}, {"measurement": "cure rate", "setting": "[15]", "result": 18, "unit": "%"}, {"measurement": "life extension of those not cured", "setting": "[15]", "result": 220, "unit": "%"}, {"measurement": "survival rate", "setting": "[15]", "result": 100, "unit": "%"}, {"measurement": "inhibition of nucleotide exchange on tubulin (in words)", "setting": "[16]", "result": "inhibit nucleotide exchange on tubulin"}, {"measurement": "inhibition of radiolabeled GTP binding to tubulin (in words)", "setting": "[16]", "result": "inhibited the binding of radiolabeled vinblastine and GTP to tubulin"}, {"measurement": "inhibition of radiolabeled GTP binding to tubulin", "setting": "[16]; 5 μM", "result": 17, "unit": "%"}, {"measurement": "inhibition of radiolabeled GTP binding to tubulin", "setting": "[16]; 10 μM", "result": 51, "unit": "%"}, {"measurement": "inhibition of nucleotide exchange, comparison (in words)", "setting": "[16]; 5 and 10 μM, comparator not given", "result": "superior as an inhibitor of nucleotide exchange"}]}]}
